The numbers were not newly measured in US20150190399A1, “NEW DIFFERENTIAL-RELEASE PHARMACEUTICAL COMPOSITION CONTAINING THREE ACTIVE PRINCIPLES” (LANDSTEINER SCIENTIFIC S.A. DE C.V., priority 2012, published 2015), which cites them from elsewhere.

SMILES strings stand for the structures.

The conditions of this series: in vivo.

For the compound `CCCCc1nc(Cl)c(CO)n1Cc1ccc(-c2ccccc2-c2nn[nH]n2)cc1` [Losartan potassium, losartan potassium], the half-life entry was “approximately 2 hours”.
